# What was measured:
# [1] = system: Lung fibroblast (MyoF system); test: BioMAP MyoF system, Example 835; format: cell-based, human; conditions: 10 uM
# Method: The BioMAP platform (BioMAP® Diversity PLUS Panel from Eurofins) is an in vitro phenotypic profiling technology that screened the compounds of the present disclosure (hereafter indicated as test agents) in human primary cell-based systems modelling complex tissue and disease states. The BioMAP assays were performed using the Eurofin's BioMAP Technology Platform as (see references 1 to 13 in the example 824 section) to model different diseases on primary cell-based model systems. These systems consisted of either single primary cell types or co-culture cells. Adherent cell types were cultured or co-cultured in 96 or 384-well plates until confluence followed by the addition of compounds prepared in DMSO at a final concentration of ≤0.1%. In each cell-based system, primary cells from heathy donors (2-6 donors) were pooled and treated with compounds at 1 and 10 μM dose 1 h prior to stimulation and remain in culture as indicated in […]
# Following the general procedure as described in Example 824, Lung fibroblast (MyoF system) were treated with TNFα and TGFβ for 48 h in the presence or absence of the compounds to model fibrosis, chronic inflammation, wound healing, matrix remodelling. Biomarker read out were; α-SM Actin, bFGF, VCAM-1, Collagen-I, Collagen-III, […], IL-8, decorin, MMP-1, PAI-1, TIMP-1, SRB
# [2] = system: Venular Endothelial cells (HUVEC) (4H system); test: BioMAP 4H system, Example 826; format: cell-based, human
# Method: (§1) The BioMAP platform (BioMAP® Diversity PLUS Panel from Eurofins) is an in vitro phenotypic profiling technology that screened the compounds of the present disclosure (hereafter indicated as test agents) in human primary cell-based systems modelling complex tissue and disease states. The BioMAP assays were performed using the Eurofin's BioMAP Technology Platform as (see references 1 to 13 in the example 824 section) to model different diseases on primary cell-based model systems. These systems consisted of either single primary cell types or co-culture cells. Adherent cell types were cultured or co-cultured in 96 or 384-well plates until confluence followed by the addition of compounds prepared in DMSO at a final concentration of ≤0.1%. In each cell-based system, primary cells from heathy donors (2-6 donors) were pooled and treated with compounds at 1 and 10 μM dose 1 h prior to stimulation and remain in culture as indicated in
# (§2) Example 825, Example 826, Example 827, Example 828, Example 829, Example 830, Example 831, Example 832, Example 833, Example 834, Example 835, Example 836 and Example 837. For on the BioMAP® Diversity PLUS® Panel, please see the following references, which are incorporate herein.
# Following the general procedure as described in Example 824, Venular Endothelial cells (HUVEC) (4H system) were treated with IL-4 and histamine for 24 h to model Th2 driven allergy and autoimmunity in the presence or absence of compounds. Biomarkers read out were; MCP-1, Eotaxin-3. VCAM-1, P-selectin, uPAR (CD87), SRB and VEGFRII.
# [3] = system: Peripheral blood mononuclear cells co-cultured with venular endothelial cells (Sag system); test: BioMAP Sag system, Example 828; format: cell-based, human
# Method: as §1, §2
# Following the general procedure as described in Example 824, Peripheral blood mononuclear cells were co-cultured with venular endothelial cells and treated with soluble antigen (T-cell ligands) (Sag system) in the presence or absence of compounds to model autoimmune and chronic inflammation. Biomarkers read out were; MCP-1, CD38, CD40, E-selectin, CD69, IL-8, MIG, PBMC cytotoxicity, Proliferation and SRB.
# [4] = system: HepG2 cells; test: Glucose uptake Glo Assay, Example 821; format: cell-based
# Method: The effect of compounds from the present disclosure on glucose uptake was determined in HepG2 cells (ATCC, HB-8065) using the glucose uptake Glo Assay Kit (Promega, 11343 according to manufacturer instructions. HepG2 cells were cultured in complete DMEM-glucose media (Gibco) supplemented with 10% FBS (37° C. incubator with 5% CO2) and seeded in 96-well plates at 30,000 cells/well. After removing the complete media, 100 μL/well of serum-free, high-glucose DMEM media were added to the wells and incubated overnight (37° C. incubator with 5% CO2). Media was then replaced with 100 μl/well DPBS containing 0.6°/o BSA and starved for 1 hour. Next, DPBS was removed and 45 μl/well of insulin (100 nM) or compounds (10 μM-50 μM) were added to the wells and incubated for 10 minutes (37° C. incubator with 5% CO2). Insulin and compounds were prepared in DPBS with 0.6% BSA with a final DMSO concentration of 0.1%. Next, 5 μl of 2DG (10 mM) in DPBS were added per well and allowed to incubate for 20 minutes followed by addition of 25 μl stop buffer. 37.5 μl of the mixture were then transferred to a new plate and 12.5 μl of Neutralization buffer added to the wells. After, 50 μl of 2DG6P detection Reagent were added and incubated for 0.5-1 hour at room temperature. Luminescence was measured with 0.3-1 second integration on a luminometer.
# [5] = system: Peripheral blood mononuclear cells co-cultured with venular endothelial cells (HUVEC) (LPS system); test: BioMAP LPS system, Example 827; format: cell-based, human
# Method: as §1, §2
# Following the general procedure as described in Example 824, Peripheral blood mononuclear cells co-cultured with venular endothelial cells (HUVEC) (LPS system) were stimulated with LPS for 24 h in the presence or absence of compounds, to model cardiovascular disease and chronic inflammation. Biomarkers read out were; MCP-1, VCAM-1, Thrombomodulin, Tissue Factor, CD40, E-selectin, CD69, IL-8, IL-1α, M-CSF, sPGE2, SRB and TNFα.
# [6] = system: Bronchial epithelial cells (BE3C system); test: BioMAP BE3C system, Example 831; format: cell-based, human
# Method: as §1, §2
# Following the general procedure as described in Example 824, Bronchial epithelial cells (BE3C system) were treated with IL-1f3, TNFα and IFNγ for 24 h in the presence or absence of the compounds to model lung inflammation and chronic obstructive pulmonary disease (COPD). Biomarkers read out were; ICAM-1, uPAR, IP-10, I-TAC, IL-8, MIG, EGFR, HLA-DR, IL-1α, Keratin 8/18, MMP-1, MMP-9, PAI-1, SRB, tPA, uPA.
# [7] = Homo sapiens, 20 min, read-out: % increase in Glucose Uptake
# [8] = Example 988, concentration tested 1 uM
# [9] = procedure of Example 827, concentration tested 1 uM
# [10] = procedure of Example 827, concentration tested 10 uM
SMILES,"% decrease in E-Selectin ([2]; 4H system, 1 uM)","% decrease in Eotaxin-3 ([2]; 4H system, 1 uM)","% decrease in VEGFRII ([2]; 4H system, 1 uM)",% decrease in E-Selectin ([2]; concentration tested 1 uM),% decrease in Eotaxin-3 ([2]; concentration tested 1 uM),% decrease in VEGFRII ([2]; concentration tested 1 uM),"activation at 50 µM [4, 7]",% increase in Glucose Uptake ([4]; concentration tested 50 uM),"% decrease in M-CSF [5, 8]","% decrease in IL-1α ([5]; LPS system, 1 uM)","% decrease in IL-8 ([5]; LPS system, 1 uM)","% decrease in M-CSF ([5]; LPS system, 1 uM)","% decrease in Thrombomodulin ([5]; LPS system, 1 uM)","% decrease in Tissue Factor ([5]; LPS system, 10 uM)",% decrease in IL-1α ([5]; concentration tested 1 uM),% decrease in Thrombomodulin ([5]; concentration tested 1 uM),% decrease in Tissue Factor ([5]; concentration tested 10 uM),"% decrease in IL-8 [5, 9]",% decrease in MMP-9 ([6]; 1 uM),"% increase in sTNFα ([5]; LPS system, 10 uM)",further results
C/C=C/C(=O)SCCNC(=O)CCNC(=O)[C@@H]1OP(=O)(O)OCC1(C)C [Compound 36],≥20%,≥10%,≥20%,≥20%,≥10%,≥20%,≥ 30%,≥30%,≥20%,≥10%,≥20%,≥20%,≥10%,≥10%,≥10%,≥10%,≥10%,≥20%,,,"% decrease in uPA [1]: ≥10%; % decrease in MCP-1 ([2]; 4H system, 1 uM): ≥10%; % decrease in MCP-1 ([2]; concentration tested 1 uM): ≥10%; % decrease in CXCL8/IL-8 ([3]; Sag system, 10 uM): ≥10%; % decrease in CXCL8/IL-8 ([3]; concentration tested 10 uM): ≥10%; % decrease in sPGE2 ([5]; LPS system, 10 uM): ≥10%; % decrease in sTNFα ([5]; LPS system, 10 uM): ≥10%; % decrease in sTNFα ([5]; concentration tested 10 uM): ≥10%"
CC(=O)CC(=O)SCCNC(=O)CCNC(=O)[C@@H]1OP(=O)(O)OCC1(C)C [Compound 42],≥10%,≥10%,≥10%,≥10%,≥10%,≥10%,,,≥20%,≥10%,≥20%,≥20%,≥10%,≥10%,≥10%,≥10%,≥10%,≥20%,≥10%,≥20%,"% increase in CD69 ([3]; Sag system, 10 uM): ≥10%; % increase in MCP-1 ([3]; Sag system, 10 uM): ≥10%; % increase in CD69 ([3]; concentration tested 10 uM): ≥10%; activation at 10 µM ([4]; Homo sapiens, 20 min, 10 uM, read-out: % increase in Glucose Uptake): ≥ 30%; % increase in Glucose Uptake ([4]; concentration tested 10 uM): ≥30%; % increase in sTNFα ([5]; concentration tested 10 uM): ≥20%"
CCOP1(=O)OCC(C)(C)[C@H](C(=O)NCCC(=O)NCCSC(=O)CCC(=O)O)O1 (some centres unmarked) [Compound 61],,,,,,,≥ 10%,≥10%,≥10%,≥10%,,≥10%,,≥10%,≥10%,,≥10%,,≥10%,≥10%,"% decrease in E-Selectin ([2]; 4H system, 10 uM): ≥10%; % decrease in MCP-1 ([2]; 4H system, 10 uM): ≥10%; % decrease in E-Selectin ([2]; concentration tested 10 uM): ≥10%; % decrease in MCP-1 ([2]; concentration tested 10 uM): ≥10%; % increase in PBMC Cytotoxicity ([3]; Sag system, 10 uM): ≥10%; % increase in PBMC Cytotoxicity ([3]; concentration tested 10 uM): ≥10%; % decrease in sTNFα ([5]; LPS system, 1 uM): ≥10%; % decrease in IL-8 ([5]; LPS system, 10 uM): ≥20%; % decrease in sTNFα ([5]; concentration tested 1 uM): ≥10%; % increase in sTNFα ([5]; concentration tested 10 uM): ≥10%; % decrease in IL-8 [5, 10]: ≥20%"
COC(=O)CCC(=O)SCCNC(=O)CCNC(=O)[C@@H]1OC(=O)OCC1(C)C [Compound 451],≥10%,≥10%,≥10%,≥10%,≥10%,≥10%,≥ 20%,≥20%,≥20%,≥10%,,≥20%,≥10%,≥10%,≥10%,≥10%,≥10%,,≥10%,,"% decrease in MCP-1 ([2]; 4H system, 10 uM): ≥10%; % decrease in MCP-1 ([2]; concentration tested 10 uM): ≥10%; % decrease in CXCL8/IL-8 ([3]; Sag system, 10 uM): ≥10%; % decrease in CXCL8/IL-8 ([3]; concentration tested 10 uM): ≥10%; % decrease in tPA ([6]; 10 uM): ≥10%; % decrease in IL-8 ([5]; LPS system, 10 uM): ≥20%; % decrease in IL-8 [5, 10]: ≥20%"
COC(=O)CCC(=O)SCCNC(=O)CCNC(=O)[C@@H]1OC(C)(CC(=O)OC)OCC1(C)C (some centres unmarked) [Compound 633],≥20%,≥10%,≥10%,≥20%,≥10%,≥10%,,,≥10%,,≥20%,≥10%,≥20%,,,≥20%,,≥20%,,≥10%,"% decrease in uPA [1]: ≥10%; % decrease in MCP-1 ([2]; 4H system, 10 uM): ≥10%; % decrease in MCP-1 ([2]; concentration tested 10 uM): ≥10%; % increase in IL-8 ([6]; 1 uM): ≥10%; % decrease in MMP-9 ([6]; 10 uM): ≥10%; % decrease in Tissue Factor ([5]; LPS system, 1 uM): ≥10%; % decrease in sPGE2 ([5]; LPS system, 1 uM): ≥10%; % decrease in sTNFα ([5]; LPS system, 1 uM): ≥10%; % decrease in Tissue Factor ([5]; concentration tested 1 uM): ≥10%; % decrease in sTNFα ([5]; concentration tested 1 uM): ≥10%; % increase in sTNFα ([5]; concentration tested 10 uM): ≥10%"

# Source: patent US12037354B2, “Cyclic pantetheine derivatives and uses thereof” (VectivBio Comet AG, priority 2018, dated 2024)
